The record followed here is US20110052623A1, “DRIED MICROBIAL CELLS OR MICROORGANISM EXTRACT CONTAINING STABILIZED (SS)-S-ADENOSYL-L-METHIONINE AND METHOD FOR PRODUCTION OF THE DRIED MICROORGANISM CELL OR MICROORGANISM EXTRACT” (KANEKA CORPORATION, priority 2007, published 2011).

Data set [1] in a line: Stabilizing agent: dried yeast cells containing SAM with added compound preserved at 25° C. for 7 days. It counts as physicochemical. On the procedure: The yeast cells obtained in the Reference Example were suspended in deionized water in one-sixth (⅙) of the amount of the culture solution. Each of the compounds listed in table 3 (30% by weight in terms of dry weight) was separately added to the resultant, followed by freezing at −80° C. and lyophilization. Thus, dried yeast cells containing SAM were obtained.

A short description of data set [2]: Bioabsorbability of dried yeast cells containing (SS)-SAM, oral administration (Example 4). Type of data set: in vivo. As to conditions: SD rats, 20 g/L SAM at 5 ml/kg b.w. On the procedure: The resultant was orally administered to rats in the same manner such that comparative control examples were obtained. Before administration and 1, 2, 3, 5, or 8 hours after administration, blood was collected from the jugular vein without any anesthesia and with the use of heparin as an anticoagulant. The plasma components were collected via centrifugation. A 0.4 g/L trichloroacetic acid aqueous solution (40 μL) was added to the obtained plasma (200 μL), followed by mixing and centrifugation. The SAM concentration in the obtained supernatant was analyzed by HPLC. FIG. 1 and table 4 show the results.

Data set [3] in a line: Bioabsorbability of spray-dried yeast cells containing (SS)-SAM, oral administration (Example 5). Type of data set: in vivo. As to conditions: SD rats, 20 g/L SAM at 5 ml/kg b.w. How it is done:
The obtained dried yeast cells were matured in the presence of silica gel at 40° C. for 7 days. Thus, dried yeast cells containing (SS)-SAM were obtained. The obtained dried yeast cells containing (SS)-SAM were suspended in distilled water to result in an SAM concentration of 20 g/L. The resultant was orally administered to SD rats (male, 17 weeks old) at a dose of 5 ml/kg b.w. […] The resultant was orally administered to rats in the same manner such that comparative control examples were obtained. Before administration and 1, 2, 3, 5, or 8 hours after administration, blood collection was carried out from the jugular vein without any anesthesia and with the use of heparin as an anticoagulant. The plasma components were collected via centrifugation. A 0.4 g/L trichloroacetic acid aqueous solution (40 μL) was added to the obtained plasma (200 μl), followed by mixing and centrifugation. The SAM concentration in the obtained supernatant was analyzed by HPLC.

The mark [4] stands for this setting: compound added at 30% by weight to dried yeast cells, 25° C., 7 days.

Counter-ions that a name gives are not always drawn. Like-named read-outs stand apart in the source and are kept apart here.

In the case of `O=C(O)CC(O)C(=O)O` (racemic) [DL-malic acid], the SAM residual rate in data set [1] (setting [4]) amounted to 99.1%.

In data set [1] (setting [4]), `CCC(N)C(=O)O` (racemic) [DL-α-amino-n-butyrate] displayed an SAM residual rate of 96.8%.

In data set [1] (setting [4]), `Cl.N` [Ammonium chloride] showed an SAM residual rate of 95.6%.

As for `N.O=P(O)(O)O` [Ammonium dihydrogen phosphate], in data set [1], the SAM residual rate is reported as 93.6%.

In turn, `N.N.O=S(=O)(O)O` [Ammonium sulfate] showed an SAM residual rate in data set [1] (setting [4]) of 87.5%.

On to `[Ca+2].[Cl-].[Cl-]` [Calcium chloride], for which the SAM residual rate in data set [1] stood at 93.7%.

As to `O=C(O)CC(O)(CC(=O)O)C(=O)O` [Citric acid], the SAM residual rate in data set [1] (setting [4]) came to 96.6%.

`O=S(=O)([O-])[O-].[Cu+2]` [Copper sulfate] displayed an SAM residual rate in data set [1] of 94.2%.

Regarding `OC[C@H]1O[C@@H](O[C@H]2[C@H](O)[C@@H](O)[C@H](O)O[C@@H]2CO)[C@H](O)[C@@H](O)[C@@H]1O` [D-cellobiose], the SAM residual rate in data set [1] (setting [4]) is on record as 93.1%.

In data set [1] (setting [4]), `CC(C)C[C@@H](N)C(=O)O` [D-leucine] came in with an SAM residual rate of 91.9%.

In data set [1] (setting [4]), `OC[C@@H](O)[C@H](O)[C@H](O)[C@@H](O)CO` [Dulcitol] displayed an SAM residual rate of 92.2%.

For `O.O.O.O.O.O.O.O=S(=O)([O-])[O-].[Fe+2]` [Ferrous sulfate heptahydrate], in data set [1], the SAM residual rate is reported as 90.4%.

`OC[C@@H](O)[C@H](O)[C@H](O)[C@@H](O)CO` [Galactitol] had an SAM residual rate in data set [1] (setting [4]) of 90.7%.

The molecule `O=C[C@H](O)[C@@H](O)[C@@H](O)[C@H](O)CO` [Galactose] showed an SAM residual rate in data set [1] (setting [4]) of 99.7%.

Take `O=C1O[C@H](CO)[C@@H](O)[C@H](O)[C@H]1O` [Glucono-δ-lactone]: the SAM residual rate in data set [1] (setting [4]) is given as 100.7%.

In data set [1] (setting [4]), `NCC(=O)O` [Glycine] yielded an SAM residual rate of 97.5%.

In turn, `O[C@H]1[C@H](O)[C@@H](O)[C@H](O)[C@@H](O)[C@H]1O` [Inositol] gave an SAM residual rate in data set [1] (setting [4]) of 96.2%.

In data set [1] (setting [4]), `C[C@H](N)C(=O)O` [L-alanine] returned an SAM residual rate of 86.9%.

On to `O=C1O[C@H]([C@@H](O)CO)C(O)=C1O` [L-ascorbic acid], for which, in data set [1] (setting [4]), the SAM residual rate was 90.0%.

Regarding `NC(=O)CC[C@H](N)C(=O)O` [L-glutamine], in data set [1] (setting [4]), the SAM residual rate is 94.5%.

In the case of `CSCC[C@H](N)C(=O)O` [L-methionine], in data set [1] (setting [4]), the SAM residual rate worked out at 100.9%.

In data set [1] (setting [4]), `O=C(CO)[C@@H](O)[C@H](O)[C@@H](O)CO` [L-sorbose] gave an SAM residual rate of 88.4%.

In turn, `O=C(O)[C@H](O)[C@@H](O)C(=O)O` [L-tartaric acid] displayed an SAM residual rate in data set [1] (setting [4]) of 88.1%.

`C[C@@H](O)[C@H](N)C(=O)O` [L-threonine]: the SAM residual rate in data set [1] (setting [4]) amounted to 92.0%.

In data set [1] (setting [4]), `CC(C)[C@H](N)C(=O)O` [L-valine] gave an SAM residual rate of 89.7%.

Regarding `OC[C@@H](O)[C@@H](O[C@@H]1O[C@H](CO)[C@H](O)[C@H](O)[C@H]1O)[C@H](O)[C@@H](O)CO` [Lactitol], the SAM residual rate in data set [1] (setting [4]) was found to be 91.3%.

Molecule `O=S(=O)([O-])[O-].[Mg+2]` [Magnesium sulfate] came in with an SAM residual rate in data set [1] of 101.6%.

`O=S(=O)([O-])[O-].[Mn+2]` [Manganese sulfate] had an SAM residual rate in data set [1] (setting [4]) of 95.0%.

For the molecule `OC[C@@H](O)[C@@H](O)[C@H](O)[C@H](O)CO` [Mannitol], the SAM residual rate in data set [1] (setting [4]) was 86.8%.

On to `CC(=O)N[C@H]1C(O)O[C@H](CO)[C@@H](O)[C@@H]1O` (stereo partly drawn) [N-acetylglucosamine], for which the SAM residual rate in data set [1] (setting [4]) is on record as 97.6%.

In the case of `O=C(O)c1cccnc1` [Nicotinic acid], the SAM residual rate in data set [1] (setting [4]) is 102.3%.

Turning to `NC(=O)c1cccnc1` [Nicotinic-acid amide], the SAM residual rate in data set [1] (setting [4]) is given as 97.3%.

`O=P(O)(O)O` [Phosphoric acid]: in data set [1] (setting [4]), the SAM residual rate turned out to be 89.3%.

Consider `C[S+](CC[C@H](N)C(=O)[O-])C[C@H]1O[C@@H](n2cnc3c(N)ncnc32)[C@H](O)[C@@H]1O.Cc1ccc(S(=O)(=O)O)cc1.O=S(=O)(O)O.O=S(=O)(O)O` (stereo partly drawn) [SAM/p-toluenesulfonic acid/sulfate], for which the “Area under SAM concentration curve (AUC)” value in data set [2] (AUC at 8 hours after administration, dried yeast cells of Example 1) worked out at 3200 ng·h/mL; in data set [3] (AUC at 8 hours after administration, dried yeast cells of Example 5) it was 3200 ng·h/mL. Also, the “Maximum SAM concentration in plasma” value in data set [2] (dried yeast cells of Example 1 (lyophilized)) and in data set [3] (dried yeast cells of Example 5 (spray dried)) was 0.771 µg/mL in each case.

`O=C([O-])[C@H](O)[C@@H](O)[C@H](O)[C@H](O)CO.[Na+]` [Sodium gluconate] gave an SAM residual rate in data set [1] (setting [4]) of 89.1%.

Take `OC[C@@H](O)[C@@H](O)[C@H](O)[C@@H](O)CO` [Sorbitol]: the SAM residual rate in data set [1] (setting [4]) is reported as 98.2%.

`OC[C@H]1O[C@@](CO)(O[C@H]2O[C@H](CO)[C@@H](O)[C@H](O)[C@H]2O)[C@@H](O)[C@@H]1O` [Sucrose] registered an SAM residual rate in data set [1] (setting [4]) of 93.8%.

Turning to `O=S(=O)([O-])[O-].[Zn+2]` [Zinc sulfate], the SAM residual rate in data set [1] is 94.3%.

The molecule `Cc1ncc(C[n+]2csc(CCO)c2C)c(N)n1` [thiamine hydrochloride] registered an SAM residual rate in data set [1] (setting [4]) of 99.5%.

For Cellulose, in data set [1] (setting [4]), the SAM residual rate stood at 92.0%.

In data set [1] (setting [4]), Ferric chloride hexahydrate had an SAM residual rate of 95.7%.

In turn, Fructo-oligosaccharide yielded an SAM residual rate in data set [1] (setting [4]) of 85.9%.

Glycogen showed an SAM residual rate in data set [1] (setting [4]) of 94.6%.

In data set [1] (setting [4]), Inulin yielded an SAM residual rate of 93.1%.

For the molecule Isomalto-oligosaccharide, the SAM residual rate in data set [1] (setting [4]) turned out to be 84.9%.
